{
  "source": "patent US5739336A",
  "about": "“1,3,8-triaza- and 3,8-diaza-1-oxaspiro [4,5] decane derivatives” (Syntex (U.S.A.) Inc., priority 1996, dated 1998)",
  "origin": "cited, not measured here",
  "key": {"[1]": {"test_system": "rats"}, "[2]": {"test_system": "migraine", "conditions": "human, in vivo"}, "[3]": {"test_system": "rat", "conditions": "SI and elevated X-maze models"}, "[4]": {"test_system": "abstaining alcoholics"}, "[5]": {"test_system": "human volunteers", "conditions": "for slow wave sleep (SWS): human/healthy volunteers"}, "[6]": {"test_system": "rats", "remark": "listed apart in the source"}, "[7]": {"test_system": "human volunteers"}, "[8]": {"test_system": "panic disorder patients or obsessive compulsive disorder patients"}, "[9]": {"test_system": "human volunteers", "remark": "listed apart in the source"}, "[10]": {"test_system": "rat models of addiction"}, "[11]": {"test_system": "chronic alcoholics"}, "[12]": {"test_system": "patients withdrawing from other drugs of abuse"}},
  "data": [
    {"smiles": "O=C(c1ccc(F)cc1)C1CCN(CCn2c(=O)[nH]c3ccccc3c2=O)CC1", "note": "[ketanserin]", "values": [
      {"measurement": "alcohol preference", "setting": "[1]", "result": "has no affect on preference for alcohol"},
      {"measurement": "clinical effectiveness as antimigraine agent", "setting": "[2]", "result": "is not"}
    ]},
    {"smiles": "Clc1cccc(N2CCNCC2)c1", "note": "[mCPP, 1-(3-chlorophenyl)piperazine]", "values": [
      {"measurement": "anxiogenic effects", "setting": "[3]", "result": "produces anxiogenic effects"},
      {"measurement": "craving for alcohol", "setting": "[4]", "result": "induces a craving for alcohol"},
      {"measurement": "rapid eye movement sleep", "setting": "[5]; human volunteers", "result": "reduces total sleep time, sleep efficiency, slow wave sleep (SWS) and rapid eye movement sleep"},
      {"measurement": "sleep efficiency", "setting": "[5]; human volunteers", "result": "reduces total sleep time, sleep efficiency"},
      {"measurement": "total sleep time", "setting": "[5]; human volunteers", "result": "reduces total sleep time"},
      {"measurement": "slow wave sleep (SWS)", "setting": "[5]", "result": "reduces total sleep time, sleep efficiency, slow wave sleep (SWS)"},
      {"measurement": "penile erections", "setting": "[6]", "result": "produces penile erections in rats"},
      {"measurement": "anxiety on administration", "setting": "[7]", "result": "causes anxiety"},
      {"measurement": "levels of panic and/or anxiety", "setting": "[8]", "result": "increases levels of panic and/or anxiety"},
      {"measurement": "migraine-like headaches", "setting": "[9]", "result": "causes migraine-like headaches"}
    ]},
    {"smiles": "Cc1nc2sccn2c(=O)c1CCN1CCC(=C(c2ccc(F)cc2)c2ccc(F)cc2)CC1", "note": "[ritanserin]", "values": [
      {"measurement": "alcohol preference", "setting": "[1]", "result": "reduces alcohol preference"},
      {"measurement": "cocaine and fentanyl preference", "setting": "[10]", "result": "reduces both cocaine and fentanyl preference"},
      {"measurement": "alcohol intake", "setting": "[11]", "result": "decreases alcohol intake"},
      {"measurement": "usefulness in withdrawal from other drugs of abuse", "setting": "[12]", "result": "is useful in patients withdrawing from other drugs of abuse"},
      {"measurement": "sleep onset latency", "setting": "[5]; healthy volunteers", "result": "reduces sleep onset latency"},
      {"measurement": "subjective sleep quality", "setting": "[5]; healthy volunteers", "result": "improves subjective sleep quality"},
      {"measurement": "slow wave sleep (SWS)", "setting": "[5]", "result": "increases SWS"}
    ]}
  ]
}
